Test system: 926638-142-R-J1-PDC complex spheroid viability
Test: Anticancer human tumor 926638-142-R-J1-PDC patient-derived endometrial carcinoma cell line growth inhibition [POLQ]
Details: for IC50: curve of first compound; for viability, T/C: stronger effect = lower value; active = viability on the fitted dose curve at most 10% of control; inactive = the rest
Method in brief: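 Growth inhibition in 3D: complex spheroids (tumor PDC, HUVEC, MSC) treated with POLQ inhibitor combinations; where Cmax unknown, highest tested concentration 10 microM, except SN-38 at 1 microM.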

[1] = second compound 0.0316 µM, first compound 0.0316 µM
[2] = second compound 0.0316 µM, first compound 0.1 µM
[3] = second compound 0.0316 µM, first compound 0.316 µM
[4] = second compound 0.0316 µM, first compound 1 µM
[5] = second compound 0.0316 µM, first compound 3.16 µM
[6] = second compound 0.0316 µM, first compound 10 µM
[7] = second compound 0.1 µM, first compound 0.0316 µM
[8] = second compound 0.1 µM, first compound 0.1 µM
[9] = second compound 0.1 µM, first compound 0.316 µM
[10] = second compound 0.1 µM, first compound 1 µM
[11] = second compound 0.1 µM, first compound 3.16 µM
[12] = second compound 0.1 µM, first compound 10 µM
[13] = second compound 0.316 µM, first compound 0.0316 µM
[14] = second compound 0.316 µM, first compound 0.1 µM
[15] = second compound 0.316 µM, first compound 0.316 µM
[16] = second compound 0.316 µM, first compound 1 µM
[17] = second compound 0.316 µM, first compound 3.16 µM
[18] = second compound 0.316 µM, first compound 10 µM
[19] = second compound 1 µM, first compound 0.0316 µM
[20] = second compound 1 µM, first compound 0.1 µM
[21] = second compound 1 µM, first compound 0.316 µM
[22] = second compound 1 µM, first compound 1 µM
[23] = second compound 1 µM, first compound 3.16 µM
[24] = second compound 1 µM, first compound 10 µM
[25] = second compound 3.16 µM, first compound 0.0316 µM
[26] = second compound 3.16 µM, first compound 0.1 µM
[27] = second compound 3.16 µM, first compound 0.316 µM
[28] = second compound 3.16 µM, first compound 1 µM
[29] = second compound 3.16 µM, first compound 3.16 µM
[30] = second compound 3.16 µM, first compound 10 µM
[31] = second compound 10 µM, first compound 0.0316 µM
[32] = second compound 10 µM, first compound 0.1 µM
[33] = second compound 10 µM, first compound 0.316 µM
[34] = second compound 10 µM, first compound 1 µM
[35] = second compound 10 µM, first compound 3.16 µM
[36] = second compound 10 µM, first compound 10 µM
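Also: spheroids exposed to drugs for one week before readout.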
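For viability, T/C in this document: percent viability relative to DMSO vehicle control wells set as 100%.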

CNCc1ccc(-c2[nH]c3cc(F)cc4c3c2CCNC4=O)cc1 + Cc1cccc(N(C)C(=O)C2C(O)CCN2c2nc(C)cc(C(F)(F)F)c2C#N)c1
> 10000 nM: IC50 (second compound 0.0316 µM) | IC50 (second compound 0.1 µM) | IC50 (second compound 0.316 µM) | IC50 (second compound 1 µM) | IC50 (second compound 3.16 µM) | IC50 (second compound 10 µM)
inactive: viability, T/C [1] 69.2% | viability, T/C [2] 112% | viability, T/C [3] 100% | viability, T/C [4] 93.8% | viability, T/C [5] 89.9% | viability, T/C [6] 82% | viability, T/C [7] 103% | viability, T/C [8] 97.9% | viability, T/C [9] 85.5% | viability, T/C [10] 80.1% | viability, T/C [11] 75.6% | viability, T/C [12] 74.7% | viability, T/C [13] 104% | viability, T/C [14] 92.7% | viability, T/C [15] 84.5% | viability, T/C [16] 89.7% | viability, T/C [17] 100% | viability, T/C [18] 81% | viability, T/C [19] 91.3% | viability, T/C [20] 89.6% | viability, T/C [21] 89.7% | viability, T/C [22] 89% | viability, T/C [23] 81% | viability, T/C [24] 79.1% | viability, T/C [25] 97.8% | viability, T/C [26] 92.8% | viability, T/C [27] 85.1% | viability, T/C [28] 87.9% | viability, T/C [29] 98.5% | viability, T/C [30] 69.7% | viability, T/C [31] 88.8% | viability, T/C [32] 87.7% | viability, T/C [33] 96.2% | viability, T/C [34] 87.2% | viability, T/C [35] 75.4% | viability, T/C [36] 71.7%

Cn1ncnc1[C@H]1c2n[nH]c(=O)c3cc(F)cc(c23)N[C@@H]1c1ccc(F)cc1 + Cc1cccc(N(C)C(=O)C2C(O)CCN2c2nc(C)cc(C(F)(F)F)c2C#N)c1
> 100 nM: IC50 (second compound 0.0316 µM) | IC50 (second compound 0.1 µM) | IC50 (second compound 0.316 µM) | IC50 (second compound 1 µM) | IC50 (second compound 3.16 µM) | IC50 (second compound 10 µM)
inactive: viability, T/C (second compound 0.0316 µM, first compound 0.000316 µM) 100% | viability, T/C (second compound 0.0316 µM, first compound 0.001 µM) 83.6% | viability, T/C (second compound 0.0316 µM, first compound 0.00316 µM) 86.1% | viability, T/C (second compound 0.0316 µM, first compound 0.01 µM) 84.9% | viability, T/C [1] 81.5% | viability, T/C [2] 73.8% | viability, T/C (second compound 0.1 µM, first compound 0.000316 µM) 91.2% | viability, T/C (second compound 0.1 µM, first compound 0.001 µM) 82.4% | viability, T/C (second compound 0.1 µM, first compound 0.00316 µM) 83.6% | viability, T/C (second compound 0.1 µM, first compound 0.01 µM) 82.5% | viability, T/C [7] 73.7% | viability, T/C [8] 78.8% | viability, T/C (second compound 0.316 µM, first compound 0.000316 µM) 86.9% | viability, T/C (second compound 0.316 µM, first compound 0.001 µM) 81.2% | viability, T/C (second compound 0.316 µM, first compound 0.00316 µM) 92.9% | viability, T/C (second compound 0.316 µM, first compound 0.01 µM) 73.4% | viability, T/C [13] 64.9% | viability, T/C [14] 65.3% | viability, T/C (second compound 1 µM, first compound 0.000316 µM) 103% | viability, T/C (second compound 1 µM, first compound 0.001 µM) 101% | viability, T/C (second compound 1 µM, first compound 0.00316 µM) 70.3% | viability, T/C (second compound 1 µM, first compound 0.01 µM) 77.2% | viability, T/C [19] 85.1% | viability, T/C [20] 68.1% | viability, T/C (second compound 3.16 µM, first compound 0.000316 µM) 73.5% | viability, T/C (second compound 3.16 µM, first compound 0.001 µM) 97.5% | viability, T/C (second compound 3.16 µM, first compound 0.00316 µM) 91% | viability, T/C (second compound 3.16 µM, first compound 0.01 µM) 67.5% | viability, T/C [25] 74.1% | viability, T/C [26] 76.8% | viability, T/C (second compound 10 µM, first compound 0.000316 µM) 87.9% | viability, T/C (second compound 10 µM, first compound 0.001 µM) 84.2% | viability, T/C (second compound 10 µM, first compound 0.00316 µM) 77.3% | viability, T/C (second compound 10 µM, first compound 0.01 µM) 80% | viability, T/C [31] 72.7% | viability, T/C [32] 75.7%

Nc1ccn(C2OC(CO)C(O)C2(F)F)c(=O)n1 (stereo not drawn) + Cc1cccc(N(C)C(=O)C2C(O)CCN2c2nc(C)cc(C(F)(F)F)c2C#N)c1
821 nM: IC50 (second compound 3.16 µM)
624 nM: IC50 (second compound 1 µM)
1730 nM: IC50 (second compound 0.1 µM)
844 nM: IC50 (second compound 0.316 µM)
535 nM: IC50 (second compound 10 µM)
inactive: viability, T/C [1] 88.1% | viability, T/C [2] 66.7% | viability, T/C [3] 54.9% | viability, T/C [4] 62.1% | viability, T/C [5] 44.8% | viability, T/C [6] 20.9% | viability, T/C [7] 81.3% | viability, T/C [8] 68.9% | viability, T/C [9] 57.9% | viability, T/C [10] 62.2% | viability, T/C [11] 46% | viability, T/C [12] 22.8% | viability, T/C [13] 97.1% | viability, T/C [14] 64.6% | viability, T/C [15] 60.8% | viability, T/C [16] 51.4% | viability, T/C [17] 43.7% | viability, T/C [18] 26.2% | viability, T/C [19] 80.8% | viability, T/C [20] 62.1% | viability, T/C [21] 53.8% | viability, T/C [22] 46.5% | viability, T/C [23] 44.2% | viability, T/C [24] 22.4% | viability, T/C [25] 89.4% | viability, T/C [26] 63.6% | viability, T/C [27] 48.5% | viability, T/C [28] 60.4% | viability, T/C [29] 45.1% | viability, T/C [30] 28% | viability, T/C [31] 85.1% | viability, T/C [32] 70.5% | viability, T/C [33] 52% | viability, T/C [34] 44.5% | viability, T/C [35] 41.4% | viability, T/C [36] 32.5%
1300 nM: IC50 (second compound 0.0316 µM)

O=C(c1cc(Cc2n[nH]c(=O)c3ccccc23)ccc1F)N1CCN(C(=O)C2CC2)CC1 + Cc1cccc(N(C)C(=O)C2C(O)CCN2c2nc(C)cc(C(F)(F)F)c2C#N)c1
> 10000 nM: IC50 (second compound 0.0316 µM) | IC50 (second compound 0.1 µM) | IC50 (second compound 0.316 µM) | IC50 (second compound 1 µM) | IC50 (second compound 3.16 µM) | IC50 (second compound 10 µM)
inactive: viability, T/C [1] 102% | viability, T/C [2] 93% | viability, T/C [3] 92.1% | viability, T/C [4] 87.2% | viability, T/C [5] 74.5% | viability, T/C [6] 79.1% | viability, T/C [7] 114% | viability, T/C [8] 87.8% | viability, T/C [9] 92.4% | viability, T/C [10] 88.3% | viability, T/C [11] 77.6% | viability, T/C [12] 79.1% | viability, T/C [13] 101% | viability, T/C [14] 91.6% | viability, T/C [15] 82.9% | viability, T/C [16] 85.9% | viability, T/C [17] 85.8% | viability, T/C [18] 86.5% | viability, T/C [19] 86.5% | viability, T/C [20] 83.5% | viability, T/C [21] 91.5% | viability, T/C [22] 91.8% | viability, T/C [23] 67.5% | viability, T/C [24] 87.2% | viability, T/C [25] 76.4% | viability, T/C [26] 98.2% | viability, T/C [27] 101% | viability, T/C [28] 79.9% | viability, T/C [29] 86.3% | viability, T/C [30] 69.8% | viability, T/C [31] 72.3% | viability, T/C [32] 80% | viability, T/C [33] 78.9% | viability, T/C [34] 75.7% | viability, T/C [35] 69.8% | viability, T/C [36] 71.1%

— PubChem BioAssay AID1963826 (Molecular Pharmacology Branch, DTP, NCI, 2024)
